The source of these data is patent US20140350014A1, “COMPOUNDS FOR INHIBITING THE INTERACTION OF BCL2 WITH BINDING PARTNERS” (NOVARTIS AG, priority 2011, published 2014).

Sequence of BCL-2 binding to BAD peptide (P10415 whole entry): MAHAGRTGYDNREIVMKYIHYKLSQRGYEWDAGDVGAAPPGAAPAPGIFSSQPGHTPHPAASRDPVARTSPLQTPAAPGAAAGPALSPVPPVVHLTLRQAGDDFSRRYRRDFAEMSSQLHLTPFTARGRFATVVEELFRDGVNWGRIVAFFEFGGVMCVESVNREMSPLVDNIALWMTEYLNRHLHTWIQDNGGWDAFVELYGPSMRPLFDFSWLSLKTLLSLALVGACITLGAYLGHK
Sequence of BCL-2 binding to BAK peptide (P10415 whole entry): as above

The target in the first test is BCL-2 binding to BAD peptide (Homo sapiens, UniProt P10415). The experiment in a line: BCL2 SPR solution inhibition assay, BAD peptide surface (Biacore A100). The settings on record: read-out: BCL2_SPR IC50 BAD. The text has this:
(§1) 33The present method includes utility of a Surface plasmon resonance (SPR)-based biosensor (Bia34core™′ GE Healthcare, Uppsala, Sweden) to characterize BCL-2 inhibitors. 35
(§2) 36Biacore™ utilizes the phenomenon of surface plasmon resonance (SPR) to detect and measure 37binding interactions. In a typical Biacore experiment, one of the interacting molecules (ligand) is i38mmobilized on a flexible dextran matrix while the interacting partner (analyte) is allowed to fl39ow across that surface. A binding interaction results in an increase in mass on the sensor surface 40and a corresponding direct change in the refractive index of the medium in the vicinity of the 41sensor surface. Changes in refractive index or signal are recorded in resonance units (R.U.) Signal 42changes due to association and dissociation of complexes are monitored in a non-invasive manne43r, continuously and in real-time, the results of which are reported in the form of a sensorgram.44
(§3) The SPR assay is con45figured to examine solution inhibition of BCL-2 binding to peptide derivatized sensor surfa46ces to generate IC50 values as a measure of inhibitor potency.
(§4) Biacore™ A100 (GE Healthcare, Uppsala, Sweden) was used to conduct all experiments reported herein. Sensor surface preparation and all interaction analyses experiments were performed at 25° C. Reagents were purchased from GE Healthcare. Running buffer containing 10 mM Hepes, pH7.4, 150 mM sodium chloride, 1.25 mM Dithiothreitol, 3% Dimethyl sulfoxide and 0.05% polysorbate 20 were utilized throughout all analyses.
(§5) Biotinylated BAK, BAD and NOXA peptides were diluted to 10 nM in running buffer and captured onto a sensor surface pre-derivatized with streptavidin (sensor chip SA) to peptide surface densities in the range 50-100 R.U. Peptide captured surfaces were blocked with 500 μM PEO2-Biotin.
(§6) Interaction analyses were performed by first equilibrating each sample within a 6 point three fold compound dilution series in the range 16 μM to […] with 56 nM BCL-2 for one hour during instrument start-up procedures. Protein compound mixtures were then injected over each peptide surface in parallel for 60 seconds at a flow-rate of 30 μL/min. 56 nM BCL-2 control samples were also prepared and run at regular intervals during the assay. Surface regeneration was performed at the end of each analysis cycle by two 30 second injections of 10 mM Glycine, pH 2.5, 1M Sodium Chloride, 0.05% polysorbate 20. Samples and control compound samples were run in duplicate and controls are also run at regular intervals during the assay to monitor surface and assay performance.
(§7) Data analyses are carried out using Biacore™ A100 evaluation software v1.1 to validate assay quality. Binding level report points were used relative to BCL-2 control samples to calculate % inhibition values for each compound protein mixture. […] The range of data shown in table 1 represents the high and low IC50 values obtained from multiple experiments.
In the case of `CCCCN(CCCC)C(=O)c1cc(C)n(-c2ccc(-c3ccc(OC)c(OC)c3)cc2C(=O)N2Cc3ccccc3C[C@H]2CO)n1` [Example 52], the IC50 is 567 to 629 nM.

`CCCCN(CCCC)C(=O)c1cc(C)n(-c2ccc(-c3cccc4cnccc34)cc2C(=O)N2Cc3ccccc3C[C@H]2CO)n1` [Example 53]: the IC50 lay in the range of 811 to 996 nM.

With `CCCCN(CCCC)C(=O)c1cc(C)n(-c2ccc(-c3cc(Cl)ccc3OC)cc2C(=O)N2Cc3ccccc3C[C@H]2CO)n1` [Example 54], the IC50 lay in the range of 938 to 952 nM.

For `CCCCN(CCCC)C(=O)c1cc(C)n(-c2ccc(-c3ccc(OC(C)C)cc3)cc2C(=O)N2Cc3ccccc3C[C@H]2CO)n1` [Example 55], the IC50 lay in the range of 722 to 764 nM.

For `CCCCN(CCCC)C(=O)c1cc(C)n(-c2ccc(-c3cc(OC)c(OC)c(OC)c3)cc2C(=O)N2Cc3ccccc3C[C@H]2CO)n1` [Example 56], the half-inhibitory concentration (IC50) was in the range of 284 to 296 nM.

On to `CCCCN(CCCC)C(=O)c1cc(C)n(-c2ccc(-c3ccc4cc(OC)ccc4c3)cc2C(=O)N2Cc3ccccc3C[C@H]2CO)n1` [Example 57], for which the IC50 fell in the range of 605 to 653 nM.

Take `CCCCN(CCCC)C(=O)c1cc(C)n(-c2ccc(-c3ccc(C(=O)NC)c(Cl)c3)cc2C(=O)N2Cc3ccccc3C[C@H]2CO)n1` [Example 58]: the IC50 was in the range of 151 to 152 nM.

As for `CCCCN(CCCC)C(=O)c1cc(C)n(-c2ccc(-c3cc(F)cc(OC(C)C)c3)cc2C(=O)N2Cc3ccccc3C[C@H]2CO)n1` [Example 59], the IC50 is 635 to 652 nM.

For `CCCCN(CCCC)C(=O)c1cc(C)n(-c2ccc(-c3ccc(S(C)(=O)=O)cc3)cc2C(=O)N2Cc3ccccc3C[C@H]2CO)n1` [Example 60], the IC50 fell in the range of 608 to 612 nM.

For the molecule `CCCCN(CCCC)C(=O)c1cc(C)n(-c2ccc(-c3cc(F)cc(C(=O)NC)c3)cc2C(=O)N2Cc3ccccc3C[C@H]2CO)n1` [Example 61], the IC50 fell in the range of 458 to 474 nM.

In the case of `CCCCN(CCCC)C(=O)c1cc(C)n(-c2ccc(-c3cccc(-c4nnc(C)o4)c3)cc2C(=O)N2Cc3ccccc3C[C@H]2CO)n1` [Example 62], the IC50 lay in the range of 543 to 551 nM.

For the molecule `CCCCN(CCCC)C(=O)c1cc(C)n(-c2ccc(-c3ccc(Cl)cc3)cc2C(=O)N2Cc3ccccc3C[C@H]2CO)n1` [Example 63], the IC50 fell in the range of 2070 to 2140 nM.

`CCCCN(CCCC)C(=O)c1cc(C)n(-c2ccc(-c3ccc(F)cc3Cl)cc2C(=O)N2Cc3ccccc3C[C@H]2CO)n1` [Example 64]: the 50% inhibitory concentration (IC50) fell in the range of 4460 to 4810 nM.

With `CCCCN(CCCC)C(=O)c1cc(C)n(-c2ccc(-c3c(OC)cccc3OC)cc2C(=O)N2Cc3ccccc3C[C@H]2CO)n1` [Example 65], the IC50 fell in the range of 10600 to 12300 nM.

Turning to `CCCCN(CCCC)C(=O)c1cc(C)n(-c2ccc(-c3cc(C)cc(F)c3)cc2C(=O)N2Cc3ccccc3C[C@H]2CO)n1` [Example 66], the IC50 lay within 998 to 1060 nM.

In the case of `CCCCN(CCCC)C(=O)c1cc(C)n(-c2ccc(-c3ccc4ccccc4c3)cc2C(=O)N2Cc3ccccc3C[C@H]2CO)n1` [Example 67], the IC50 lay in the range of 823 to 857 nM.

`CCCCN(CCCC)C(=O)c1cc(C)n(-c2ccc(-c3ccc(N(C)C)cc3)cc2C(=O)N2Cc3ccccc3C[C@H]2CO)n1` [Example 68]: the IC50 was 1160 to 1210 nM.

`CCCCN(CCCC)C(=O)c1cc(C)n(-c2ccc(-c3c(-c4ccccc4)noc3C)cc2C(=O)N2Cc3ccccc3C[C@H]2CO)n1` [Example 69]: the IC50 lay within 5450 to 5510 nM.

Another test addresses BCL-2 binding to BAK peptide (Homo sapiens, UniProt P10415). In words: BCL2 SPR solution inhibition assay, BAK peptide surface (Biacore A100). The settings on record: read-out: BCL2_SPR IC50 BAK.
Source text: as §1, §2, §3, §4, §5, §6, §7
In the case of `CCCCN(CCCC)C(=O)c1cc(C)n(-c2ccc(-c3ccc(OC)c(OC)c3)cc2C(=O)N2Cc3ccccc3C[C@H]2CO)n1` [Example 52], the IC50 lay within 471 to 479 nM.

Regarding `CCCCN(CCCC)C(=O)c1cc(C)n(-c2ccc(-c3cccc4cnccc34)cc2C(=O)N2Cc3ccccc3C[C@H]2CO)n1` [Example 53], the IC50 lay in the range of 607 to 779 nM.

Consider `CCCCN(CCCC)C(=O)c1cc(C)n(-c2ccc(-c3cc(Cl)ccc3OC)cc2C(=O)N2Cc3ccccc3C[C@H]2CO)n1` [Example 54], for which the IC50 was in the range of 803 to 845 nM.

With `CCCCN(CCCC)C(=O)c1cc(C)n(-c2ccc(-c3ccc(OC(C)C)cc3)cc2C(=O)N2Cc3ccccc3C[C@H]2CO)n1` [Example 55], the IC50 lay within 564 to 617 nM.

As to `CCCCN(CCCC)C(=O)c1cc(C)n(-c2ccc(-c3cc(OC)c(OC)c(OC)c3)cc2C(=O)N2Cc3ccccc3C[C@H]2CO)n1` [Example 56], the IC50 is 215 to 238 nM.

For `CCCCN(CCCC)C(=O)c1cc(C)n(-c2ccc(-c3ccc4cc(OC)ccc4c3)cc2C(=O)N2Cc3ccccc3C[C@H]2CO)n1` [Example 57], the IC50 fell in the range of 556 to 689 nM.

As for `CCCCN(CCCC)C(=O)c1cc(C)n(-c2ccc(-c3ccc(C(=O)NC)c(Cl)c3)cc2C(=O)N2Cc3ccccc3C[C@H]2CO)n1` [Example 58], the 50% inhibitory concentration (IC50) is 111 to 112 nM.

On to `CCCCN(CCCC)C(=O)c1cc(C)n(-c2ccc(-c3cc(F)cc(OC(C)C)c3)cc2C(=O)N2Cc3ccccc3C[C@H]2CO)n1` [Example 59], for which the IC50 fell in the range of 540 to 583 nM.

For `CCCCN(CCCC)C(=O)c1cc(C)n(-c2ccc(-c3ccc(S(C)(=O)=O)cc3)cc2C(=O)N2Cc3ccccc3C[C@H]2CO)n1` [Example 60], the IC50 fell in the range of 432 to 458 nM.

Consider `CCCCN(CCCC)C(=O)c1cc(C)n(-c2ccc(-c3cc(F)cc(C(=O)NC)c3)cc2C(=O)N2Cc3ccccc3C[C@H]2CO)n1` [Example 61], for which the IC50 lay in the range of 331 to 344 nM.

Take `CCCCN(CCCC)C(=O)c1cc(C)n(-c2ccc(-c3cccc(-c4nnc(C)o4)c3)cc2C(=O)N2Cc3ccccc3C[C@H]2CO)n1` [Example 62]: the IC50 was in the range of 763 to 799 nM.

As to `CCCCN(CCCC)C(=O)c1cc(C)n(-c2ccc(-c3ccc(Cl)cc3)cc2C(=O)N2Cc3ccccc3C[C@H]2CO)n1` [Example 63], the IC50 was in the range of 1710 to 1850 nM.

On to `CCCCN(CCCC)C(=O)c1cc(C)n(-c2ccc(-c3ccc(F)cc3Cl)cc2C(=O)N2Cc3ccccc3C[C@H]2CO)n1` [Example 64], for which the half-maximal inhibitory concentration (IC50) fell in the range of 3380 to 4000 nM.

On to `CCCCN(CCCC)C(=O)c1cc(C)n(-c2ccc(-c3c(OC)cccc3OC)cc2C(=O)N2Cc3ccccc3C[C@H]2CO)n1` [Example 65], for which the IC50 is 6340 to 6900 nM.

As to `CCCCN(CCCC)C(=O)c1cc(C)n(-c2ccc(-c3cc(C)cc(F)c3)cc2C(=O)N2Cc3ccccc3C[C@H]2CO)n1` [Example 66], the IC50 was in the range of 936 to 976 nM.

Turning to `CCCCN(CCCC)C(=O)c1cc(C)n(-c2ccc(-c3ccc4ccccc4c3)cc2C(=O)N2Cc3ccccc3C[C@H]2CO)n1` [Example 67], the IC50 was 785 to 804 nM.

As for `CCCCN(CCCC)C(=O)c1cc(C)n(-c2ccc(-c3ccc(N(C)C)cc3)cc2C(=O)N2Cc3ccccc3C[C@H]2CO)n1` [Example 68], the IC50 lay in the range of 1050 to 1100 nM.

With `CCCCN(CCCC)C(=O)c1cc(C)n(-c2ccc(-c3c(-c4ccccc4)noc3C)cc2C(=O)N2Cc3ccccc3C[C@H]2CO)n1` [Example 69], the IC50 was in the range of 4420 to 4570 nM.
